These are literature values, as cited in the CATMoS acute toxicity set (Mansouri et al. 2021).

Several values for one entry are separate records, joined by “and”; a condition that tells them apart may be missing. Equal values may be shown once.

This data set is described as follows: rat acute oral toxicity. To be noted: in vivo.
A word on the LD50: it is the dose at which mortality reaches 50%. Regarding `CN1CCN(CCC=C2c3ccccc3Sc3ccc(S(=O)(=O)N(C)C)cc32)CC1`, the LD50 is 720 mg/kg. Regarding `Cn1c(=O)c2c(nc(Cc3ccc(N)cc3)n2C)n(C)c1=O`, the LD50 is 383 mg/kg. On to `CC(C)=CC(NC(=O)C1=C([O-])c2sc(Cl)cc2S(=O)(=O)N1C)[n+]1ccccc1` (stereo not drawn), for which the LD50 is 10 mg/kg. Turning to `COC(=O)CC1CCCCC1`, the LD50 is 2500 mg/kg. Consider `CN(C)CCCN`, for which the LD50 was 1870 mg/kg. As to `O=C(CI)NC(=O)CI`, the LD50 is 650 mg/kg. For the molecule `CCCCOC(CBr)c1ccc(C2CCCC2)cc1` (stereo not drawn), the LD50 is 250 mg/kg. Take `CCCCOC(=O)CC(C)=O`: the LD50 is 11300 mg/kg. For the molecule `O=c1c(O)c(-c2ccc(O)c(O)c2)oc2cc(O)cc(O)c12`, the LD50 is 161 mg/kg. With `CCNCc1cc([N+](=O)[O-])ccc1O`, the LD50 was 1010 mg/kg. `CCCCS(=O)(=O)NC1CCCCC1`: the LD50 was 2820 mg/kg. For `CCOP(=O)(OCC)Oc1ccc([N+](=O)[O-])cc1`, the LD50 was 1.8 mg/kg. On to `Nc1ccc(F)c([N+](=O)[O-])c1`, for which the median lethal dose (LD50) was 1100 mg/kg. For the molecule `Nc1ccc(O)c2c1C(=O)c1c(N)c(Br)cc(O)c1C2=O`, the LD50 was 12500 mg/kg. Regarding `Nc1ccccc1SCc1ncon1`, the LD50 was 79.4 mg/kg and 63 mg/kg. As to `CCC(=O)OC1(c2ccccc2)CCN(C)CC1CC` (stereo not drawn), the LD50 was 175 mg/kg. For the molecule `CN(C)C(=S)N/N=C/c1ccc([N+](=O)[O-])o1`, the LD50 is 750 mg/kg. `ClC1=C(Cl)C2(Cl)C(CBr)CC1(Cl)C2(Cl)Cl` (stereo not drawn): the LD50 is 12500 mg/kg. In the case of `Nc1c(I)cc(I)c(C(=O)N(CCC(=O)O)c2ccccc2)c1I`, the LD50 is 2800 mg/kg. On to `O=[N+]([O-])c1ccc(Oc2ccc(C(F)(F)F)cc2Cl)cc1`, for which the LD50 is 1000 mg/kg. As to `Fc1ccccc1`, the LD50 is 4400 mg/kg. Take `COc1ccc2c(c1)OC(C)(C)C(c1ccccc1)C2c1ccc(OCC2CO2)cc1` (stereo not drawn): the LD50 is 800 mg/kg. Turning to `Clc1cccc(Cl)c1N=C1NCCN1`, the LD50 is 126 mg/kg. As to `CN(C)C1CSSSC1`, the LD50 is 195 mg/kg. Regarding `CCOC(=O)[C@H](CCc1ccccc1)N[C@@H](C)C(=O)N1C(=O)N(C)C[C@H]1C(=O)O`, the LD50 is 3540 mg/kg. Consider `CN(C)CCC#N`, for which the LD50 was 2600 mg/kg.

`CC(O)CF` (stereo not drawn): the LD50 is 3260 mg/kg. As to `CCCCC(CC)C(=O)O[Si](C)(OC(=O)C(CC)CCCC)OC(=O)C(CC)CCCC` (stereo not drawn), the LD50 was 2280 mg/kg. For `CN1CCCN=C1COC(=O)C(O)(c1ccccc1)C1CCCCC1` (stereo not drawn), the LD50 was 1370 mg/kg. `CC(C)(C)NCC(O)c1ccccc1Cl` (stereo not drawn): the LD50 is 560 mg/kg. For the molecule `N#CN=c1ccccn1Cc1ccc(Cl)cc1`, the LD50 was 500 mg/kg. Take `c1ccc([I+]c2ccccc2)cc1`: the LD50 was 60 mg/kg. `O=[N+]([O-])c1ccc(OP(=O)(OCCCCl)OCCCCl)cc1`: the LD50 was 33 mg/kg.

Turning to `COC(CC(C)=O)OC`, the LD50 was 6200 mg/kg. `C[C@H](NC(=O)[C@H](C)NC(=O)[C@@H](N)CCP(C)(=O)O)C(=O)O`: the LD50 is 268 mg/kg.

`C=C(OP(=O)(OC)OC)P(=O)(OC)OC`: the median lethal dose (LD50) is 287 mg/kg.

As for `Cc1cccc(C#N)c1`, the LD50 is 3000 mg/kg. With `COc1cc(N)ccc1N`, the LD50 is 60 mg/kg and 70 mg/kg. Turning to `FC(F)(F)c1cccc(OCC2CNC(=S)O2)c1` (stereo not drawn), the LD50 is 524 mg/kg. In the case of `CN1C(C(=O)Nc2ccccn2)=C(O)c2ccccc2S1(=O)=O`, the LD50 was 216 mg/kg. `CC(=O)N(O)CCCCCNC(=O)CCC(=O)N(O)CCCCCNC(=O)CCC(=O)N(O)CCCCCN`: the 50% lethal dose (LD50) is 17300 mg/kg. Turning to `O=[N+]([O-])C(CO)(CO)CO`, the LD50 is 1900 mg/kg.

As to `Cc1ccc2c(c1)[C@]13CCCC[C@@H]1[C@H](C2)N(C)CC3`, the LD50 is 690 mg/kg.

Turning to `CCCOC(C1=NCCN1)c1ccccc1` (stereo not drawn), the LD50 was 350 mg/kg. Take `CC(=O)C(C)=Cc1ccccc1`: the LD50 is 4100 mg/kg. For `CC1=[N+](C)c2ccccc2C1(C)C`, the LD50 was 707 mg/kg. Regarding `OC(c1ccccc1)(c1ccccc1)C1CCNCC1`, the LD50 is 984 mg/kg. As to `CN(C)CCCN1c2ccccc2CCc2ccc(Cl)cc21`, the LD50 is 914 mg/kg and 613 mg/kg. For the molecule `CC=CC(C)C1(CC)C(=O)NC(=O)NC1=O` (stereo not drawn), the LD50 is 20 mg/kg. On to `CCC1Cc2cc(CC(=O)O)ccc2O1` (stereo not drawn), for which the LD50 was 1300 mg/kg. Turning to `C=CC(=O)OCCOCCOCCOC(=O)C=C`, the LD50 is 500 mg/kg.

`O=c1nc[nH]c2c1ncn2[C@@H]1O[C@H](COP(=O)(O)OP(=O)(O)O)[C@@H](O)[C@H]1O`: the LD50 is 3790 mg/kg. `CCCc1ccc(C)cc1O`: the LD50 was 730 mg/kg. Take `CC(C)OC(=O)C(C(=O)OC(C)C)=C1SCCS1`: the LD50 is 1190 mg/kg. For `CCOc1cc(C=O)ccc1O`, the LD50 was 1590 mg/kg. As to `CC(=O)Nc1ccc(C)c(NS(=O)(=O)C(F)(F)F)c1`, the LD50 was 2580 mg/kg. With `NC(CO)C(=O)NNCc1ccc(O)c(O)c1O` (stereo not drawn), the LD50 is 5300 mg/kg. On to `O=C(O)Cc1ccc(OCC2CC2)c(Cl)c1`, for which the LD50 was 895 mg/kg. `CCN(COC(C)=O)N=O`: the LD50 is 810 mg/kg. In the case of `CCOC(=O)N1C(=O)NC(c2ccccc2)(c2ccccc2)C1=O`, the LD50 was 3500 mg/kg. With `Clc1ccc(CO/N=C(\Cn2ccnc2)c2ccc(Cl)cc2Cl)c(Cl)c1`, the LD50 is 2460 mg/kg. As for `OCC(CBr)(CBr)CBr`, the LD50 was 1630 mg/kg. `O=C1C=CCCC1`: the LD50 was 220 mg/kg.
